These results are taken from patent publication US9346786B2, “Pyrrolidine compounds” (Hoffmann-La Roche Inc., priority 2009, dated 2016).

Structures are written as SMILES.

In one assay the target is recombinant human NK3 receptor (Homo sapiens (Human), UniProt P29371). The experiment in a line: biochemical.
Chain of recombinant human NK3 receptor (P29371 whole entry): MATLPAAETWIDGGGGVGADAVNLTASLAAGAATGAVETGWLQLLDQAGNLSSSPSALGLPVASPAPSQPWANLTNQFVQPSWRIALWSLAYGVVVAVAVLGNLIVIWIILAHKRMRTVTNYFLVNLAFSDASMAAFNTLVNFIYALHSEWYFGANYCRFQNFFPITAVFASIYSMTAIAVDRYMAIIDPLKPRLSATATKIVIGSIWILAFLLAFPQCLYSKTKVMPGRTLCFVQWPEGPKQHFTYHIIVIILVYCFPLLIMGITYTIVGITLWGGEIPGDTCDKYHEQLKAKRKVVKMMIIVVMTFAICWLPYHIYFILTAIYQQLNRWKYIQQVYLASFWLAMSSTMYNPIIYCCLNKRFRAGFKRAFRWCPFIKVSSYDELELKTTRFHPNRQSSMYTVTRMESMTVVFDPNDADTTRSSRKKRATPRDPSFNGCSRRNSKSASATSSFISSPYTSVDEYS
Conditions: not given
The format is binding. Here is the method:
[^3H]SR142801 Competition Binding Assay
hNK3 receptor binding experiment were performed using [^3H]SR142801 (Catalog No. TRK1035, specific activity: 74.0 Ci/mmol, Amersham, GE Healthcare UK limited, Buckinghamshire, UK) and membrane isolated from HEK293 cells transiently expressing recombinant human NK3 receptor. After thawing, the membrane homogenates were centrifuged at 48,000×g for […] at 4° C., the pellets were resuspended in the 50 mM Tris-HCl, 4 mM MnCl2, 1 μM phosphoramidon, 0.1% BSA binding buffer at pH 7.4 to a final assay concentration of 5 μg protein/well. For inhibition experiments, membranes were incubated with [^3H]SR142801 at a concentration equal to KD value of radioligand and 10 concentrations of the inhibitory compound (0.0003-10 μM) (in a total reaction volume of 500 μl) for 75 min at room temperature (RT). At the end of the incubation, membranes were filtered onto unitfilter (96-well white microplate with bonded GF/C filter preincubated 1 h in 0.3% PEI+0.3% BSA, Packard BioScience, Meriden, Conn.) with a Filtermate 196 harvester (Packard BioScience) and washed 4 times with ice-cold 50 mM Tris-HCl, pH 7.4 buffer. Nonspecific binding was measured in the presence of 10 μM SB222200 for both radioligands. The radioactivity on the filter was counted (5 min) on a Packard Top-count microplate scintillation counter with quenching correction after addition of 45 μl of microscint 40 (Canberra Packard S.A., Zürich, Switzerland) and shaking for 1 h. Inhibition curves were fitted according to the Hill equation: y=100/(1+(x/IC50)^nH), where nH=slope factor using Excel-fit 4 software (Microsoft). IC50 values were derived from the inhibition curve and the affinity constant (Ki) values were calculated using the Cheng-Prussoff equation Ki=IC50/(1+[L]/KD) where [L] is the concentration of radioligand and KD is its dissociation constant at the receptor, derived from the saturation isotherm. All experiments were performed in duplicate and the mean±standard error (SEM) of the individual Ki values was calculated.
`CCN(C(=O)Oc1ccc(F)cc1)[C@@H]1CN(C(=O)C2CCN(c3ccc(C(N)=O)cn3)CC2)C[C@H]1c1ccc(Cl)c(F)c1` [Example 109, [(3S,4R)-1-(5′-Carbamoyl-3,4,5,6-tetrahydro-2H-[1,2′]bipyridinyl-4-carbonyl)-4-(4-chloro-3-fluoro-phenyl)-pyrrolidin-3-yl]-ethyl-carbamic acid 4-fluoro-phenyl ester]: the Ki came to 1.7 nM.

Still in this assay, the particulars now being: [3H]SR142801, membranes of HEK293 cells transiently expressing recombinant human NK3 receptor; read-out: Data Ki (hNK-3 receptor affinity).
`CCN(C(=O)Oc1ccc(F)cc1)[C@@H]1CN(C(=O)C2CCN(c3ccc(Cl)cn3)CC2)C[C@H]1c1ccc(F)c(F)c1` [Example 49, [(3S,4R)-1-(5′-Chloro-3,4,5,6-tetrahydro-2H-[1,2′]bipyridinyl-4-carbonyl)-4-(3,4-difluoro-phenyl)-pyrrolidin-3-yl]-ethyl-carbamic acid 4-fluoro-phenyl ester]: the Ki turned out to be 5 nM. Still for that read-out and setting: as for `CCN(C(=O)Oc1ccc(F)cc1)[C@@H]1CN(C(=O)C2CCN(C(=O)C3CCC3)CC2)C[C@H]1c1ccc(Cl)c(F)c1` [Example 67, [(3S,4R)-4-(4-Chloro-3-fluoro-phenyl)-1-(1-cyclobutanecarbonyl-piperidine-4-carbonyl)-pyrrolidin-3-yl]-ethyl-carbamic acid 4-fluoro-phenyl ester], the figure is 2 nM. Same read-out and setting: under `CCN(C(=O)Oc1ccc(F)cc1)[C@@H]1CN(C(=O)C2CCN(C(=O)C3CCOC(C)(C)C3)CC2)C[C@H]1c1ccc(Cl)cc1` (stereo partly drawn) [Example 98, {(3S,4R)-4-(4-Chloro-phenyl)-1-[1-(2,2-dimethyl-tetrahydro-pyran-4-carbonyl)-piperidine-4-carbonyl]-pyrrolidin-3-yl}-ethyl-carbamic acid 4-fluoro-phenyl ester] stands 4.7 nM; under `CCN(C(=O)Oc1ccc(F)cc1)[C@@H]1CN(C(=O)C2CCN(C(=O)C3(C)COC3)CC2)C[C@H]1c1ccc(Cl)cc1` [Example 88, {(3S,4R)-4-(4-Chloro-phenyl)-1-[1-(3-methyl-oxetane-3-carbonyl)-piperidine-4-carbonyl]-pyrrolidin-3-yl}-ethyl-carbamic acid 4-fluoro-phenyl ester], 5.6 nM; under `CCN(C(=O)Oc1ccc(F)cc1)[C@@H]1CN(C(=O)C2CCN(c3ccc(C#N)nn3)CC2)C[C@H]1c1ccc(Cl)cc1` [Example 18, {(3S,4R)-4-(4-Chloro-phenyl)-1-[1-(6-cyano-pyridazin-3-yl)-piperidine-4-carbonyl]-pyrrolidin-3-yl}-ethyl-carbamic acid 4-fluoro-phenyl ester], 2 nM. The same measure, in the same setting: under `CCN(C(=O)Oc1ccc(F)cc1)[C@@H]1CN(C(=O)C2CCN(C(=O)C3CCC(=O)NC3)CC2)C[C@H]1c1ccc(F)c(F)c1` (stereo partly drawn) [Example 107, {(3S,4R)-4-(3,4-Difluoro-phenyl)-1-[1-(6-oxo-piperidine-3-carbonyl)-piperidine-4-carbonyl]-pyrrolidin-3-yl}-ethyl-carbamic acid 4-fluoro-phenyl ester] stands 131 nM. `CCN(C(=O)Oc1ccc(F)cc1)[C@@H]1CN(C(=O)C2CCN(c3ccc(S(C)(=O)=O)cn3)CC2)C[C@H]1c1ccc(Cl)c(F)c1` [Example 63, [(3S,4R)-4-(4-Chloro-3-fluoro-phenyl)-1-(5′-methanesulfonyl-3,4,5,6-tetrahydro-2H-[1,2′]bipyridinyl-4-carbonyl)-pyrrolidin-3-yl]-ethyl-carbamic acid 4-fluoro-phenyl ester]: the Ki is 0.7 nM. With `CCN(CC)CC(=O)c1ccc(N2CCC(C(=O)N3C[C@@H](N(CC)C(=O)Oc4ccc(F)cc4)[C@H](c4ccc(F)cc4)C3)CC2)nc1` [Example 122, [(3S,4R)-1-[5′-(2-Diethylamino-acetyl)-3,4,5,6-tetrahydro-2H-[1,2′]bipyridinyl-4-carbonyl]-4-(4-fluoro-phenyl)-pyrrolidin-3-yl]-ethyl-carbamic acid 4-fluoro-phenyl ester], the inhibitory constant (Ki) is 69.6 nM. Same read-out and setting: under `CC(C)N(C(=O)Oc1ccc(F)cc1)[C@@H]1CN(C(=O)C2CCN(c3ccc(C#N)nn3)CC2)C[C@H]1c1ccc(Cl)cc1` [Example 26, {(3S,4R)-4-(4-Chloro-phenyl)-1-[1-(6-cyano-pyridazin-3-yl)-piperidine-4-carbonyl]-pyrrolidin-3-yl}-isopropyl-carbamic acid 4-fluoro-phenyl ester] stands 46 nM; under `CCN(C(=O)Oc1ccc(F)cc1)[C@@H]1CN(C(=O)C2CCN(C(=O)C3(C)CC3)CC2)C[C@H]1c1ccc(Cl)c(F)c1` [Example 44, {(3S,4R)-4-(4-Chloro-3-fluoro-phenyl)-1-[1-(1-methyl-cyclopropanecarbonyl)-piperidine-4-carbonyl]-pyrrolidin-3-yl}-ethyl-carbamic acid 4-fluoro-phenyl ester], 2 nM. Still for that read-out and setting: under `CCN(C(=O)Oc1ccc(F)cc1)[C@@H]1CN(C(=O)C2CCN(C(=O)C3CC3(C)C)CC2)C[C@H]1c1ccc(Cl)cc1` (stereo partly drawn) [Example 100, {(3S,4R)-4-(4-Chloro-phenyl)-1-[1-(2,2-dimethyl-cyclopropanecarbonyl)-piperidine-4-carbonyl]-pyrrolidin-3-yl}-ethyl-carbamic acid 4-fluoro-phenyl ester] stands 3.6 nM. Regarding `CCN(C(=O)Oc1ccc(F)cc1)[C@@H]1CN(C(=O)C2CCN(c3ccc(S(C)(=O)=O)cn3)CC2)C[C@H]1c1ccc(Cl)cc1` [Example 16, [(3S,4R)-4-(4-Chloro-phenyl)-1-(5′-methanesulfonyl-3,4,5,6-tetrahydro-2H-[1,2′]bipyridinyl-4-carbonyl)-pyrrolidin-3-yl]-ethyl-carbamic acid 4-fluoro-phenyl ester], the Ki was found to be 2 nM.

In the case of `CCN(C(=O)Oc1ccc(F)cc1)[C@@H]1CN(C(=O)C2CCN(c3cnc(C#N)cn3)CC2)C[C@H]1c1ccc(Cl)c(F)c1` [Example 61, {(3S,4R)-4-(4-Chloro-3-fluoro-phenyl)-1-[1-(5-cyano-pyrazin-2-yl)-piperidine-4-carbonyl]-pyrrolidin-3-yl}-ethyl-carbamic acid 4-fluoro-phenyl ester], the Ki was found to be 0.8 nM. The same measure, in the same setting: under `CCN(C(=O)Oc1ccc(F)cc1)[C@@H]1CN(C(=O)C2CCN(c3ccc(C#N)cn3)CC2)C[C@H]1c1ccc(F)cc1` [Example 35, [(3S,4R)-1-(5′-Cyano-3,4,5,6-tetrahydro-2H-[1,2′]bipyridinyl-4-carbonyl)-4-(4-fluoro-phenyl)-pyrrolidin-3-yl]-ethyl-carbamic acid 4-fluoro-phenyl ester] stands 4 nM; under `CCN(C(=O)Oc1ccc(F)cc1)[C@@H]1CN(C(=O)C2CCN(c3ccc(C(F)(F)F)cn3)CC2)C[C@H]1c1ccc(Cl)c(F)c1` [Example 42, [(3S,4R)-4-(4-Chloro-3-fluoro-phenyl)-1-(5′-trifluoromethyl-3,4,5,6-tetrahydro-2H-[1,2′]bipyridinyl-4-carbonyl)-pyrrolidin-3-yl]-ethyl-carbamic acid 4-fluoro-phenyl ester], 2 nM.

The assay is the same for the next values; noted with them: read-out: Data Ki (hNK-3 receptor affinity).
With `CCN(C(=O)Oc1ccc(F)cc1)[C@@H]1CN(C(=O)C2CCN(c3ccc(Cl)cn3)CC2)C[C@H]1c1ccc(F)cc1` [Example 36, [(3S,4R)-1-(5′-Chloro-3,4,5,6-tetrahydro-2H-[1,2′]bipyridinyl-4-carbonyl)-4-(4-fluoro-phenyl)-pyrrolidin-3-yl]-ethyl-carbamic acid 4-fluoro-phenyl ester], the Ki worked out at 10 nM.

Consider `CCN(C(=O)Oc1ccc(F)cc1)[C@H]1CN(C(=O)C2CCN(c3cc(C#N)ccn3)CC2)C[C@@H]1c1ccc(Cl)cc1` [Example 9, [(3R,4S)-4-(4-Chloro-phenyl)-1-(4′-cyano-3,4,5,6-tetrahydro-2H-[1,2′]bipyridinyl-4-carbonyl)-pyrrolidin-3-yl]-ethyl-carbamic acid 4-fluoro-phenyl ester], for which the Ki was 138 nM.

With `CCN(C(=O)Oc1ccc(F)cc1)[C@@H]1CN(C(=O)C2CCN(C(=O)C3(C(F)(F)F)CC3)CC2)C[C@H]1c1ccc(Cl)c(F)c1` [Example 71, {(3S,4R)-4-(4-Chloro-3-fluoro-phenyl)-1-[1-(1-trifluoromethyl-cyclopropanecarbonyl)-piperidine-4-carbonyl]-pyrrolidin-3-yl}-ethyl-carbamic acid 4-fluoro-phenyl ester], the Ki came out at 4 nM. On to `CCN(C(=O)Oc1ccc(F)cc1)[C@@H]1CN(C(=O)C2CCN(C(=O)C3CCOC(C)(C)C3)CC2)C[C@H]1c1ccc(Cl)c(F)c1` (stereo partly drawn) [Example 73, {(3S,4R)-4-(4-Chloro-3-fluoro-phenyl)-1-[1-(2,2-dimethyl-tetrahydro-pyran-4-carbonyl)-piperidine-4-carbonyl]-pyrrolidin-3-yl}-ethyl-carbamic acid 4-fluoro-phenyl ester], for which the Ki was 3 nM. Same read-out and setting: as for `CCN(C(=O)Oc1ccc(F)cc1)[C@H]1CN(C(=O)C2CCN(c3cnc(C#N)cn3)CC2)C[C@@H]1c1ccc(Cl)cc1` [Example 11, {(3R,4S)-4-(4-Chloro-phenyl)-1-[1-(5-cyano-pyrazin-2-yl)-piperidine-4-carbonyl]-pyrrolidin-3-yl}-ethyl-carbamic acid 4-fluoro-phenyl ester], the figure is 36 nM.
